PubChem BioAssay (NCI)
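Assay format: 96-well plates, 48-hour exposure. At the GI50, growth is halved. TGI is the concentration that stops growth completely.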

What was measured:
Assay in all cases: inhibition of tumour cell growth, NCI panel, 48 h
[1] = system: A498 renal
[2] = system: ACHN renal
[3] = system: CAKI-1 renal
[4] = system: CCRF-CEM leukemia
[5] = system: DU-145 prostate
[6] = system: EKVX NSCLC
[7] = system: HL-60(TB) leukemia
[8] = system: HOP-62 NSCLC
[9] = system: K-562 leukemia
[10] = system: MOLT-4 leukemia
[11] = system: NCI-H226 lung
[12] = system: NCI/ADR-RES ovarian
[13] = system: OVCAR-4 ovarian
[14] = system: PC-3 prostate
[15] = system: RXF 393 renal
[16] = system: 786-0 renal
[17] = system: A549 NSCLC
[18] = system: BT-549 breast
[19] = system: COLO 205 colon
[20] = system: HCC-2998 colon
[21] = system: HCT-116 colon
[22] = system: HCT-15 colon
[23] = system: HOP-92 NSCLC
[24] = system: HS 578T breast
[25] = system: HT29 colon
[26] = system: IGROV1 ovarian
[27] = system: KM12 colon
[28] = system: LOX IMVI melanoma
[29] = system: M14 melanoma
[30] = system: MALME-3M melanoma
[31] = system: MCF7 breast
[32] = system: MDA-MB-231 breast
[33] = system: MDA-MB-435
[34] = system: NCI-H23 lung
[35] = system: NCI-H460 lung
[36] = system: NCI-H522 lung
[37] = system: OVCAR-3 ovarian
[38] = system: OVCAR-5 ovarian
[39] = system: OVCAR-8 ovarian
[40] = system: RPMI-8226 leukemia
[41] = system: SF-268 CNS
[42] = system: SF-295 CNS
[43] = system: SF-539 CNS
[44] = system: SK-MEL-2 melanoma
[45] = system: SK-MEL-28 melanoma
[46] = system: SK-MEL-5 melanoma
[47] = system: SK-OV-3 ovarian
[48] = system: SN12C renal
[49] = system: SNB-19 CNS
[50] = system: SNB-75 CNS
[51] = system: SW-620 colon
[52] = system: T-47D breast
[53] = system: TK-10 renal
[54] = system: U251 CNS
[55] = system: UACC-257 melanoma
[56] = system: UACC-62 melanoma
[57] = system: UO-31 renal
[58] = system: SR leukemia

Molecule CN(C)c1ccc(/C=C/C=c2/c3ccccc3n3c2cc(-c2ccccc2)[n+]3C)cc1 has a TGI [1] of 1230 nM, a TGI [2] of 1.63 µM and a TGI [3] of 1.17 µM. The TGI [4] was greater than 100 µM, the TGI [5] was 1.03 µM and the TGI [6] was 1.57 µM. For the same molecule, the TGI [7] was 0.509 µM, the TGI [8] was 1.19 µM and the TGI [9] was greater than 100 µM. For the same molecule, the TGI [10] was 0.724 µM, the TGI [11] was 1820 nM and the TGI [12] was greater than 100 µM. It also gave a TGI [13] of 2.11 µM, a TGI [14] of 1.17 µM and a TGI [15] of 1.62 µM.

COc1ccccc1C#Cc1ccccc1C#Cc1ccc(OCCCCCCOc2ccccc2C#Cc2ccccc2C#Cc2ccccc2OC)cc1 showed a GI50 [16] greater than 100 µM, a TGI [16] greater than 100 µM and a GI50 [1] greater than 100 µM. It also gave a TGI [1] greater than 100000 nM, a GI50 [17] greater than 100 µM and a TGI [17] greater than 100 µM. It also gave a GI50 [2] greater than 100 µM, a TGI [2] greater than 100 µM and a GI50 [18] greater than 100 µM. It also gave a TGI [18] greater than 100 µM, a GI50 [3] greater than 100 µM and a TGI [3] greater than 100 µM. For the same molecule, the GI50 [4] was greater than 100 µM, the TGI [4] was greater than 100 µM and the GI50 [19] was greater than 100 µM. For the same molecule, the TGI [19] was greater than 100 µM, the GI50 [5] was greater than 100 µM and the TGI [5] was greater than 100 µM. The GI50 [6] was greater than 100 µM, the TGI [6] was greater than 100 µM and the GI50 [20] was greater than 100 µM. It also gave a TGI [20] greater than 100 µM, a GI50 [21] greater than 100 µM and a TGI [21] greater than 100 µM. For the same molecule, the GI50 [22] was greater than 100 µM, the TGI [22] was greater than 100 µM and the GI50 [7] was greater than 100 µM. For the same molecule, the TGI [7] was greater than 100 µM, the GI50 [8] was greater than 100 µM and the TGI [8] was greater than 100 µM. The GI50 [23] was 90.1 µM, the TGI [23] was greater than 100 µM and the GI50 [24] was greater than 100 µM. It also gave a TGI [24] greater than 100 µM, a GI50 [25] greater than 100 µM and a TGI [25] greater than 100 µM. It also gave a GI50 [26] greater than 100 µM, a TGI [26] greater than 100 µM and a GI50 [9] greater than 100 µM. The TGI [9] was greater than 100 µM, the GI50 [27] was greater than 100 µM and the TGI [27] was greater than 100 µM. The GI50 [28] was greater than 100 µM, the TGI [28] was greater than 100 µM and the GI50 [29] was greater than 100 µM. For the same molecule, the TGI [29] was greater than 100 µM, the GI50 [30] was greater than 100 µM and the TGI [30] was greater than 100 µM. For the same molecule, the GI50 [31] was greater than 100 µM, the TGI [31] was greater than 100 µM and the GI50 [32] was greater than 100 µM. It also gave a TGI [32] greater than 100 µM, a GI50 [33] greater than 100 µM and a TGI [33] greater than 100 µM. The GI50 [10] was greater than 100 µM, the TGI [10] was greater than 100 µM and the GI50 [11] was greater than 100 µM. The TGI [11] was greater than 100000 nM, the GI50 [34] was greater than 100 µM and the TGI [34] was greater than 100 µM. It also gave a GI50 [35] greater than 100 µM, a TGI [35] greater than 100 µM and a GI50 [36] greater than 100 µM. It also gave a TGI [36] greater than 100 µM, a GI50 [12] greater than 100 µM and a TGI [12] greater than 100 µM. It also gave a GI50 [37] greater than 100 µM, a TGI [37] greater than 100 µM and a GI50 [13] greater than 100 µM. The TGI [13] was greater than 100 µM, the GI50 [38] was greater than 100 µM and the TGI [38] was greater than 100 µM. It also gave a GI50 [39] greater than 100 µM, a TGI [39] greater than 100 µM and a GI50 [14] greater than 100 µM. It also gave a TGI [14] greater than 100 µM, a GI50 [40] greater than 100 µM and a TGI [40] greater than 100000 nM. The GI50 [15] was greater than 100 µM, the TGI [15] was greater than 100 µM and the GI50 [41] was greater than 100 µM. It also gave a TGI [41] greater than 100 µM, a GI50 [42] greater than 100 µM and a TGI [42] greater than 100 µM. It also gave a GI50 [43] greater than 100 µM, a TGI [43] greater than 100 µM and a GI50 [44] greater than 100 µM. For the same molecule, the TGI [44] was greater than 100 µM, the GI50 [45] was greater than 100 µM and the TGI [45] was greater than 100 µM. For the same molecule, the GI50 [46] was greater than 100 µM, the TGI [46] was greater than 100 µM and the GI50 [47] was greater than 100 µM. The TGI [47] was greater than 100 µM, the GI50 [48] was greater than 100 µM and the TGI [48] was greater than 100 µM. The GI50 [49] was greater than 100 µM, the TGI [49] was greater than 100 µM and the GI50 [50] was greater than 100 µM. The TGI [50] was greater than 100 µM, the GI50 [51] was greater than 100 µM and the TGI [51] was greater than 100 µM. The GI50 [52] was greater than 100 µM, the TGI [52] was greater than 100 µM and the GI50 [53] was greater than 100 µM. For the same molecule, the TGI [53] was greater than 100 µM, the GI50 [54] was greater than 100 µM and the TGI [54] was greater than 100 µM. For the same molecule, the GI50 [55] was greater than 100 µM, the TGI [55] was greater than 100 µM and the GI50 [56] was greater than 100 µM. The TGI [56] was greater than 100 µM, the GI50 [57] was greater than 100 µM and the TGI [57] was greater than 100 µM.

O=C1C(Cl)=C(Cl)C(=O)C(CCNc2nccs2)=C1Cl showed a TGI [16] of 45 µM, a TGI [17] greater than 100 µM and a TGI [2] of 63.2 µM. It also gave a TGI [3] of 37.1 µM, a TGI [4] greater than 100 µM and a TGI [19] greater than 100 µM. It also gave a TGI [5] greater than 100 µM, a TGI [6] of 60.4 µM and a TGI [20] greater than 100 µM. For the same molecule, the TGI [21] was 68.4 µM, the TGI [22] was 43.7 µM and the TGI [7] was greater than 100 µM. It also gave a TGI [8] greater than 100 µM, a TGI [23] of 58.2 µM and a TGI [24] of 75.3 µM. For the same molecule, the TGI [25] was greater than 100 µM, the TGI [26] was 42.2 µM and the TGI [9] was greater than 100 µM. The TGI [27] was greater than 100 µM, the TGI [29] was 42 µM and the TGI [30] was 46.6 µM. It also gave a TGI [31] greater than 100 µM, a TGI [33] of 42 µM and a TGI [10] greater than 100 µM. It also gave a TGI [34] of 59.3 µM, a TGI [35] greater than 100 µM and a TGI [36] of 51.3 µM. It also gave a TGI [12] of 58.7 µM, a TGI [37] of 49.8 µM and a TGI [13] greater than 100 µM. For the same molecule, the TGI [38] was greater than 100 µM, the TGI [39] was 87.3 µM and the TGI [14] was 42.2 µM. The TGI [15] was 46.2 µM, the TGI [41] was greater than 100 µM and the TGI [42] was greater than 100 µM. The TGI [43] was greater than 100 µM, the TGI [44] was 75.6 µM and the TGI [45] was greater than 100 µM. The TGI [46] was 50.1 µM, the TGI [47] was greater than 100 µM and the TGI [48] was 73.2 µM. The TGI [49] was greater than 100 µM, the TGI [50] was 69.5 µM and the TGI [58] was greater than 100 µM. It also gave a TGI [51] greater than 100 µM, a TGI [52] greater than 100 µM and a TGI [53] of 63.6 µM. It also gave a TGI [54] greater than 100 µM, a TGI [55] of 54.3 µM and a TGI [56] of 63.6 µM. The TGI [57] was 46.4 µM.

Cc1cc(N)c2ccccc2[n+]1CCCCCCCCCCNc1cc(C)[n+](CCCCCCCCCC[n+]2c(C)cc(N)c3ccccc32)c2ccccc12 was tested, and the TGI [3] was greater than 100 µM, the TGI [19] was greater than 100 µM and the TGI [6] was 33.7 µM. The TGI [25] was 29 µM, the TGI [31] was greater than 100 µM and the TGI [40] was 1520 nM.
